According to patent US20240025906A1 (NEURON23, INC., priority 2022, published 2024):

Legend:
TYK2 JH2 = target: T1, TYK2 JH2 (Homo sapiens, UniProt P29597); test: TYK2 JH2 binding assay (KINOMEscan KdELECT competitive binding); details: TYK2 JH2 domain, DiscoverX KINOMEscan KdELECT (Assay A); read-out: Biochemical TYK2_DiscoverX_JH2_BND_Kd
T1 construct: purchased DiscoverX (KINOMEscan KdELECT service); host or cells: E. coli BL21-derived (T7 phage display) or HEK-293
Procedure, shortened: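 JH2-domain fragment, expressed as T7 phage tag in BL21-derived E. coli or DNA-tagged from HEK-293, competed with test compound against bead-immobilized biotinylated ligand in binding buffer (0.9% DMSO). 1 h shaking at room temperature; bound kinase eluted with 0.5 μM free ligand and quantified by qPCR. Kd from 11-point 3-fold dilutions.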

[1] = tested on: JAK1/TYK2 pSTAT5 (Tyr694/699) in THP-1 cell line; test: IFNa-stimulated JAK1/TYK2 pSTAT5 (Tyr694/699) inhibition cellular assay, AlphaLISA; format: cell-based; details: Homo sapiens; THP-1 cells, IFNa-stimulated, AlphaLISA (Assay B); read-out: Cellular_THP1_IFNa-pSTATS_TYK2
Procedure, shortened: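 The readout is AlphaLISA signal at 615 nm for phospho-STAT5 in THP-1 lysates after IFNa stimulation (added at 100 ng/mL, 30 min, 37 °C). Cells had compound for 1 h beforehand across eight 6-fold concentrations up to 10000 nM final. IC50s are 4PL fits with bottom and Hill slope constrained.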

T1 sequence (P29597 589-875 limits assumed): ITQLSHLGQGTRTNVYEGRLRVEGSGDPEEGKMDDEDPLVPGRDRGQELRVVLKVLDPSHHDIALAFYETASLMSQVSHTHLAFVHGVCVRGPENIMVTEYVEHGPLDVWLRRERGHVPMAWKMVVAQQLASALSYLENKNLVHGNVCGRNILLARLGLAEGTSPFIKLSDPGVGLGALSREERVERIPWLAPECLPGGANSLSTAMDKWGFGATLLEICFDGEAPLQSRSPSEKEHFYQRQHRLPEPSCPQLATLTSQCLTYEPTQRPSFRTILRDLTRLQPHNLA

Row | SMILES | Kd (TYK2 JH2) | IC50 [1]
1 | CNc1ncc(-c2nc3cccc(N4CCC4CO)c3o2)c2cc(NC(=O)C3CC3)ncc12 (centres unmarked) [Example 265, N-(5-(7-(2-(hydroxymethyl)azetidin-t-yl)benzo[d]oxazol-2-yl)-8-(methylamino)-2,7-naphthyridin-3-yl)cyclopropanecarboxamide] | ≤ 100 nM | ≤ 500 nM
2 | CNc1ncc(-c2nc3cccc(CC#N)c3o2)c2cc(NC(=O)C3CC3)ncc12 [Example 266, N-(5-(7-(cyanomethyl)benzo[d]oxazol-2-yl)-8-(methylamino)-2,7-naphthyridin-3-yl)cyclopropanecarboxamide] | ≤ 100 nM | ≤ 500 nM
3 | CNc1ncc(-c2nc3cccc(COC)c3o2)c2cc(NC(=O)C3CC3)ncc12 [Example 267, N-(5-(7-(methoxymethyl)benzo[d]oxazol-2-yl)-8-(methylamino)-2,7-naphthyridin-3-yl)cyclopropanecarboxamide] | ≤ 100 nM | ≤ 500 nM
4 | CCO/C=C\c1cccc2nc(-c3cnc(NC)c4cnc(NC(=O)C5CC5)cc34)oc12 [Example 268, (Z)—N-(5-(7-(2-ethoxyvinyl)benzo[d]oxazol-2-yl)-8-(methylamino)-2,7-naphthyridin-3-yl)cyclopropanecarboxamide] | ≤ 100 nM | ≤ 500 nM
5 | CCOCCc1cccc2nc(-c3cnc(NC)c4cnc(NC(=O)C5CC5)cc34)oc12 [Example 269, N-(5-(7-(2-ethoxyethyl)benzo[d]oxazol-2-yl)-8-(methylamino)-2,7-naphthyridin-3-yl)cyclopropanecarboxamide] | ≤ 100 nM | ≤ 500 nM
6 | CNc1ncc(-c2nc3cccc(CCC#N)c3o2)c2cc(NC(=O)C3CC3)ncc12 [Example 270, N-(5-(7-(2-cyanoethyl)benzo[d]oxazol-2-yl)-8-(methylamino)-2,7-naphthyridin-3-yl)cyclopropanecarboxamide] | ≤ 100 nM | ≤ 500 nM
7 | CNc1ncc(-c2nc3cccc(Cc4cocn4)c3o2)c2cc(NC(=O)C3CC3)ncc12 [Example 271, N-(8-(methylamino)-5-(7-(oxazol-4-ylmethyl)benzo[d]oxazol-2-yl)-2,7-naphthyridin-3-yl)cyclopropanecarboxamide] | ≤ 100 nM | ≤ 500 nM
8 | CNc1ncc(-c2nc3c(Br)cccc3o2)c2cc(NC(=O)C3CC3)ncc12 [Example 272, N-(5-(4-bromobenzo[d]oxazol-2-yl)-8-(methylamino)-2,7-naphthyridin-3-yl)cyclopropanecarboxamide] | ≤ 100 nM | ≤ 500 nM
9 | CNc1ncc(-c2nc3c(CC#N)cccc3o2)c2cc(NC(=O)C3CC3)ncc12 [Example 273, N-(5-(4-(cyanomethyl)benzo[d]oxazol-2-yl)-8-(methylamino)-2,7-naphthyridin-3-yl)cyclopropanecarboxamide] | ≤ 100 nM | ≤ 500 nM
10 | CNc1ncc(-c2nc3ccc(N4CC(OC)C4)cc3o2)c2cc(NC(=O)C3CC3)ncc12 [Example 274, N-(5-(6-(3-methoxyazetidin-1-yl)benzo[d]oxazol-2-yl)-8-(methylamino)-2,7-naphthyridin-3-yl)cyclopropanecarboxamide] | ≤ 100 nM | ≤ 500 nM
11 | CNc1ncc(-c2nc3ccc(N4CCO[C@@H](C)C4)cc3o2)c2cc(NC(=O)C3CC3)ncc12 [Example 275, (S)—N-(8-(methylamino)-5-(6-(2-methylmorpholino)benzo[d]oxazol-2-yl)-2,7-naphthyridin-3-yl)cyclopropanecarboxamide] | ≤ 100 nM | ≤ 500 nM
12 | CNc1ncc(-c2nc3ccc(N4CCO[C@H](C)C4)cc3o2)c2cc(NC(=O)C3CC3)ncc12 [Example 276, (R)—N-(8-(methylamino)-5-(6-(2-methylmorpholino)benzo[d]oxazol-2-yl)-2,7-naphthyridin-3-yl)cyclopropanecarboxamide] | ≤ 100 nM | ≤ 500 nM
13 | CNc1ncc(-c2nc3cc(N4CCC4)ccc3o2)c2cc(NC(=O)C3CC3)ncc12 [Example 277, N-(5-(5-(azetidin-1-yl)benzo[d]oxazol-2-yl)-8-(methylamino)-2,7-naphthyridin-3-yl)cyclopropanecarboxamide] | ≤ 100 nM | ≤ 500 nM
14 | CNc1ncc(-c2nc3cc(N4CCC4COC)ccc3o2)c2cc(NC(=O)C3CC3)ncc12 (centres unmarked) [Example 278, N-(5-(5-(2-(methoxymethyl)azetidin-1-yl)benzo[d]oxazol-2-y1)-8-(methylamino)-2,7-naphthyridin-3-yl)cyclopropanecarboxamide] | ≤ 100 nM | ≤ 500 nM
15 | CNc1ncc(-c2nc3cc(N4CC(F)(F)C4)ccc3o2)c2cc(NC(=O)C3CC3)ncc12 [Example 279, N-(5-(5-(3,3-difluoroazetidin-1-yl)benzo[d]oxazol-2-yl)-8-(methylamino)-2,7-naphthyridin-3-yl)cyclopropanecarboxamide] | ≤ 100 nM | ≤ 500 nM
16 | CNc1ncc(-c2nc3cc(N4CC(OC)C4)ccc3o2)c2cc(NC(=O)C3CC3)ncc12 [Example 280, N-(5-(5-(3-methoxyazetidin-1-yl)benzo[d]oxazol-2-y1)-8-(methylamino)-2,7-naphthyridin-3-yl)cyclopropanecarboxamide] | ≤ 100 nM | ≤ 500 nM

Other lines, results leading:

Row | Kd (TYK2 JH2) | IC50 [1] | SMILES
17 | ≤ 100 nM | ≤ 500 nM | CNc1ncc(-c2nc3cc(OC4CN(S(C)(=O)=O)C4)ccc3o2)c2cc(NC(=O)C3CC3)ncc12 [Example 250, N-(8-(methylamino)-5-(5-((1-(methylsulfonyl)azetidin-3-yl)oxy)benzo[d]oxazol-2-yl)-2,7-naphthyridin-3-yl)cyclopropanecarboxamide]
18 | ≤ 100 nM | ≤ 500 nM | CNc1ncc(-c2nc3cc(OC4CN(C5CCOC5)C4)ccc3o2)c2cc(NC(=O)C3CC3)ncc12 (centres unmarked) [Example 251, N-(8-(methylamino)-5-(5-((1-(tetrahydrofuran-3-yl)azetidin-3-yl)oxy)benzo[d]oxazol-2-yl)-2,7-naphthyridin-3-yl)cyclopropanecarboxamide]
19 | ≤ 100 nM | ≤ 500 nM | CNc1ncc(-c2nc3cc(C4CN(S(C)(=O)=O)C4)ccc3o2)c2cc(NC(=O)C3CC3)ncc12 [Example 252, N-(8-(methylamino)-5-(5-(1-(methylsulfonyl)azetidin-3-yl)benzo[d]oxazol-2-yl)-2,7-naphthyridin-3-yl)cyclopropanecarboxamide]
20 | ≤ 100 nM | ≤ 500 nM | CNc1ncc(-c2nc3cc(OC4CCOCC4)ccc3o2)c2cc(NC(=O)C3CC3)ncc12 [Example 253, N-(8-(methylamino)-5-(5-((tetrahydro-2H-pyran-4-yl)oxy)benzo[d]oxazol-2-yl)-2,7-naphthyridin-3-yl)cyclopropanecarboxamide]
21 | ≤ 100 nM | ≤ 500 nM | CNc1ncc(-c2nc3ccc(CO)cc3o2)c2cc(NC(=O)C3CC3)ncc12 [Example 254, N-(5-(6-(hydroxymethyl)benzo[d]oxazol-2-yl)-8-(methylamino)-2,7-naphthyridin-3-yl)cyclopropanecarboxamide]
22 | ≤ 100 nM | ≤ 500 nM | CNc1ncc(-c2nc3cc(CC(F)(F)F)ccc3o2)c2cc(NC(=O)C3CC3)ncc12 [Example 255, N-(8-(methylamino)-5-(5-(2,2,2-trifluoroethyl)benzo[d]oxazol-2-yl)-2,7-naphthyridin-3-yl)cyclopropanecarboxamide]
23 | ≤ 100 nM | ≤ 500 nM | CNc1ncc(-c2nc3cc(OCC(C)(C)OC)ccc3o2)c2cc(NC(=O)C3CC3)ncc12 [Example 256, N-(5-(5-(2-methoxy-2-methylpropoxy)benzo[d]oxazol-2-yl)-8-(methylamino)-2,7-naphthyridin-3-yl)cyclopropanecarboxamide]
24 | ≤ 100 nM | ≤ 500 nM | CNc1ncc(-c2nc3cc(CS(C)(=O)=O)ccc3o2)c2cc(NC(=O)C3CC3)ncc12 [Example 257, N-(8-(methylamino)-5-(5-((methylsulfonyl)methyl)benzo[d]oxazol-2-yl)-2,7-naphthyridin-3-yl)cyclopropanecarboxamide]
25 | ≤ 100 nM | ≤ 500 nM | CNc1ncc(-c2nc3cc(C4COC4)ccc3o2)c2cc(NC(=O)C3CC3)ncc12 [Example 258, N-(8-(methylamino)-5-(5-(oxetan-3-yl)benzo[d]oxazol-2-yl)-2,7-naphthyridin-3-yl)cyclopropanecarboxamide]
26 | ≤ 100 nM | ≤ 500 nM | CNc1ncc(-c2nc3cc(N4CCOC(C)C4)c(C)cc3o2)c2cc(NC(=O)C3CC3)ncc12 (centres unmarked) [Example 259, N-(5-(6-methyl-5-(2-methylmorpholino)benzo[d]oxazol-2-yl)-8-(methylamino)-2,7-naphthyridin-3-yl)cyclopropanecarboxamide]
27 | ≤ 100 nM | > 500 nM | CNc1ncc(-c2nc3cccc(N4CCC4COC)c3o2)c2cc(NC(=O)C3CC3)ncc12 (centres unmarked) [Example 263, N-(5-(7-(2-(methoxymethyl)azetidin-1-yl)benzo[d]oxazol-2-yl)-8-(methylamino)-2,7-naphthyridin-3-yl)cyclopropanecarboxamide]
28 | ≤ 100 nM | ≤ 500 nM | CNc1ncc(-c2nc3cccc(N4CC(COC)C4)c3o2)c2cc(NC(=O)C3CC3)ncc12 [Example 264, N-(5-(7-(3-(methoxymethyl)azetidin-1-yl)benzo[d]oxazol-2-yl)-8-(methylamino)-2,7-naphthyridin-3-yl)cyclopropanecarboxamide]
